Reference: patent US20230072860A1, “ISOXAZOLINE OXIME FORMATE COMPOUND, PREPARATION METHOD THEREFOR, HERBICIDAL COMPOSITION AND USE THEREOF” (QINGDAO KINGAGROOT CHEMICAL COMPOUND CO., LTD., priority 2020, published 2023)

How the values were obtained:
Experiment in all cases: Experiment on weeding effect in post-emergence stage
Assay type in all cases: in vivo
Conditions in all cases: dose 15 g a.i./ha, fresh weight control rate level
[1] = system: Veronica didyma Tenore
From the text: (§1) Experiment on weeding effect in post-emergence stage:
(§2) Monocotyledonous and dicotyledonous weed seeds (Descurainia sophia, Capsella bursa-pastoris, Abutilon theophrasti, Galium aparine, Stellaria media, Lithospermum arvense, Rorippa indica, Alopecurus aequalis, Alopecurus japonicus, Beckmannia syzigachne, Sclerochloa dura, Conyza Canadensis, Phleum paniculatum, Veronica didyma Tenore, Eleusine indica, Bromus japonicus, Aegilops tauschii, Phalaris arundinacea, Amaranthus retroflexus, Chenopodium album, Commelina communis, Sonchus arvensis, Convolvulus arvensis, Cirsium setosum, Solanum nigrum, Acalypha australis, Digitaria sanguinalis, Echinochloa crusgalli, Setaria viridis, Setaria glauca, Leptochloa chinensis, Monochoria vaginalis, Sagittaria trolia, Scirpus juncoides, Cyperus rotundus, Cyperus iria, Cyperus difformis, Elmbristylis, Portulaca oleracea, Xanthium sibiricum, Pharbitis nil) and major crop seeds (wheat, corn, rice, soybean, cotton, oilseed rape, millet, sorghum, potato, sesame, ricinus) were placed in plastic pots filled with soil, then covered with 0.5-2 cm of soil, allowed to grow in a good greenhouse environment. After 2 weeks of sowing, the test plants were treated in the 2-3 leaf stage. The tested compounds of the present invention were respectively dissolved in acetone, then added with Tween 80 and 1.5 liter/ha of emulsifiable concentrate of methyl oleate as synergist, diluted with a certain amount of water to obtain a solution with a certain concentration, and sprayed with a spray tower onto the plants. After the application, the plants were cultured for 3 weeks in the greenhouse, and then the experimental results of the weeding were counted. The doses of the used compounds were 500, 250, 125, 60, 15 g a.i./ha, and the averages were obtained by repeating for three times.

[2] = system: Echinochloa crusgalli
From the text: as §1, §2

[3] = system: Eleusine indica
From the text: as §1, §2

[4] = system: Leptochloa chinensis
From the text: as §1, §2

[5] = system: Galium aparine
From the text: as §1, §2

[6] = system: Amaranthus retroflexus
From the text: as §1, §2

[7] = system: Digitaria sanguinalis
From the text: as §1, §2

[8] = system: Abutilon theophrasti
From the text: as §1, §2

[9] = system: Setaria viridis
From the text: as §1, §2

Structure (SMILES)	weeding effect in post-emergence stage, Veronica didyma Tenore (level) [1]	weeding effect in post-emergence stage, Echinochloa crusgalli (level) [2]	weeding effect in post-emergence stage, Eleusine indica (level) [3]	weeding effect in post-emergence stage, Leptochloa chinensis (level) [4]	weeding effect in post-emergence stage, Galium aparine (level) [5]	weeding effect in post-emergence stage, Amaranthus retroflexus (level) [6]	weeding effect in post-emergence stage, Digitaria sanguinalis (level) [7]	weeding effect in post-emergence stage, Abutilon theophrasti (level) [8]	weeding effect in post-emergence stage, Setaria viridis (level) [9]
CC=NOC(=O)C1(C)CC(c2cc(-n3c(=O)n(C)c(=S)n(C)c3=O)c(F)cc2Cl)=NO1 (mixture of isomers) [Compound 2]	5 (Level 5: growth control rate is above 85%)	5 (Level 5: growth control rate is above 85%)	5 (Level 5: growth control rate is above 85%)	5 (Level 5: growth control rate is above 85%)	5 (Level 5: growth control rate is above 85%)	5 (Level 5: growth control rate is above 85%)	5 (Level 5: growth control rate is above 85%)	5 (Level 5: growth control rate is above 85%)	5 (Level 5: growth control rate is above 85%)
CCC(C)=NOC(=O)C1(C)CC(c2cc(-n3c(=O)n(C)c(=S)n(C)c3=O)c(F)cc2Cl)=NO1 (mixture of isomers) [Compound 79]	5 (Level 5: growth control rate is above 85%)	5 (Level 5: growth control rate is above 85%)	5 (Level 5: growth control rate is above 85%)	5 (Level 5: growth control rate is above 85%)	5 (Level 5: growth control rate is above 85%)	5 (Level 5: growth control rate is above 85%)	5 (Level 5: growth control rate is above 85%)	5 (Level 5: growth control rate is above 85%)	5 (Level 5: growth control rate is above 85%)
CC(=NOC(=O)C1(C)CC(c2cc(-n3c(=O)n(C)c(=S)n(C)c3=O)c(F)cc2Cl)=NO1)C(C)C (mixture of isomers) [Compound 80]	5 (Level 5: growth control rate is above 85%)	5 (Level 5: growth control rate is above 85%)	5 (Level 5: growth control rate is above 85%)	5 (Level 5: growth control rate is above 85%)	5 (Level 5: growth control rate is above 85%)	5 (Level 5: growth control rate is above 85%)	5 (Level 5: growth control rate is above 85%)	5 (Level 5: growth control rate is above 85%)	5 (Level 5: growth control rate is above 85%)
CC(=NOC(=O)C1(C)CC(c2cc(-n3c(=O)n(C)c(=S)n(C)c3=O)c(F)cc2Cl)=NO1)C(C)(C)C (mixture of isomers) [Compound 81]	5 (Level 5: growth control rate is above 85%)	5 (Level 5: growth control rate is above 85%)	5 (Level 5: growth control rate is above 85%)	5 (Level 5: growth control rate is above 85%)	5 (Level 5: growth control rate is above 85%)	5 (Level 5: growth control rate is above 85%)	5 (Level 5: growth control rate is above 85%)	5 (Level 5: growth control rate is above 85%)	5 (Level 5: growth control rate is above 85%)
CC(=NOC(=O)C1(C)CC(c2cc(-n3c(=O)n(C)c(=S)n(C)c3=O)c(F)cc2Cl)=NO1)C1CC1 (mixture of isomers) [Compound 84]	5 (Level 5: growth control rate is above 85%)	5 (Level 5: growth control rate is above 85%)	5 (Level 5: growth control rate is above 85%)	5 (Level 5: growth control rate is above 85%)	5 (Level 5: growth control rate is above 85%)	5 (Level 5: growth control rate is above 85%)	5 (Level 5: growth control rate is above 85%)	5 (Level 5: growth control rate is above 85%)	5 (Level 5: growth control rate is above 85%)
Cn1c(=S)n(C)c(=O)n(-c2cc(C3=NOC(C)(C(=O)ON=Cc4ccccc4)C3)c(Cl)cc2F)c1=O (mixture of isomers) [Compound 90]	5 (Level 5: growth control rate is above 85%)	5 (Level 5: growth control rate is above 85%)	5 (Level 5: growth control rate is above 85%)	5 (Level 5: growth control rate is above 85%)	5 (Level 5: growth control rate is above 85%)	5 (Level 5: growth control rate is above 85%)	5 (Level 5: growth control rate is above 85%)	5 (Level 5: growth control rate is above 85%)	5 (Level 5: growth control rate is above 85%)
Cc1ccc(C=NOC(=O)C2(C)CC(c3cc(-n4c(=O)n(C)c(=S)n(C)c4=O)c(F)cc3Cl)=NO2)o1 (mixture of isomers) [Compound 117]	5 (Level 5: growth control rate is above 85%)	5 (Level 5: growth control rate is above 85%)	5 (Level 5: growth control rate is above 85%)	5 (Level 5: growth control rate is above 85%)	5 (Level 5: growth control rate is above 85%)	5 (Level 5: growth control rate is above 85%)	5 (Level 5: growth control rate is above 85%)	5 (Level 5: growth control rate is above 85%)	5 (Level 5: growth control rate is above 85%)
Cc1ccc(C=NOC(=O)C2(C)CC(c3cc(-n4c(=O)n(C)c(=S)n(C)c4=O)c(F)cc3Cl)=NO2)s1 (mixture of isomers) [Compound 118]	5 (Level 5: growth control rate is above 85%)	5 (Level 5: growth control rate is above 85%)	5 (Level 5: growth control rate is above 85%)	5 (Level 5: growth control rate is above 85%)	5 (Level 5: growth control rate is above 85%)	5 (Level 5: growth control rate is above 85%)	5 (Level 5: growth control rate is above 85%)	5 (Level 5: growth control rate is above 85%)	5 (Level 5: growth control rate is above 85%)
CCOC(C)=NOC(=O)C1(C)CC(c2cc(-n3c(=O)n(C)c(=S)n(C)c3=O)c(F)cc2Cl)=NO1 (mixture of isomers) [Compound 120]	5 (Level 5: growth control rate is above 85%)	5 (Level 5: growth control rate is above 85%)	5 (Level 5: growth control rate is above 85%)	5 (Level 5: growth control rate is above 85%)	5 (Level 5: growth control rate is above 85%)	5 (Level 5: growth control rate is above 85%)	5 (Level 5: growth control rate is above 85%)	5 (Level 5: growth control rate is above 85%)	5 (Level 5: growth control rate is above 85%)
